# Measured values as given in patent publication US11731985B2, “Compositions and methods for treating cancer” (Hb Therapeutics Inc., priority 2018, dated 2023).
# Like-named read-outs stand apart in the source and are kept apart here. Where a SMILES comes first, the peptide text is derived from it. The star is where a group is joined. Cbz = O=C(OCc1ccccc1)*
# Experiments:
# SUMO1 [1] = assay: Ubiquitination of Flag-SUMO1 (immunoprecipitation, western blot) in co-transfected LN229 cells; type: cell-based, human; settings: LN229 cells co-transfected with Flag-SUMO1-GV and HA-UB-WT
# Description: (§1) The non-conjugated Flag-tagged SUMO1 (Flag-SUMO1-GV) and the HA-tagged wild type (WT) UB (HA-UB-WT) were co-transfected in LN229 cells.
# lung cancer PDX (L1102F) = assay: Patient derived xenograft of lung cancer (L1102F); type: in vivo, mice; settings: for PDX growth: CPD24 25 and 50 mg/kg, CPD1 100 mg/kg
# Description: (§2) The left two graphs show data for compounds CPD1 and the middle two graphs show data for CPD24 treatment of colon cancer PDX (L1206F). […] The right two graphs show data for compound CPD1 and CPD24 treatment of lung cancer PDX (L1102F). […] The significance of **P<0.01, and ***P<0.001 was statistically analyzed.
# (§3) For the therapeutic effects of the compounds, we examined the effects of CPD1 and CPD24 on various types of cancer xenografts in mice. […] NOD/SCID mice bearing intracranial brain xenografts of glioblastoma LN229 cell line were treated with CPD1.
# [2] = Tolerability across all xenograft mice; type: in vivo; settings: over the treatment period
# Experimental: as §3
# [3] = Pharmacokinetics, tissue distribution and toxicity in mice, intraperitoneal administration; type: in vivo
# Description: (§4) For example, without limitation, pharmaceutical compositions of this compound (CPD1) can comprise a molecular weight 348 g/mol and the log P value 3.7.
# LN229 cells = assay: Cell viability assay, LN229 cells; type: cell-based, human; settings: for IC50: read-out: Inhibition of Cancer Cell Growth (IC50)
# Experimental: Each of the compounds was used to treat the cancer LN229 cells and examined first by western and dot blot assays for the degradation of SUMO1 protein and then by cell viability assay for the IC50 values of anticancer activity.
# (§5) LN229 cell were treated with a series of dilutions of CPD1 and examined by cell viability assay for cell growth inhibition (FIG. 2B). […] Therefore, CPD1 acts as the degrader of SUMO1 protein and inhibitor of SUMO1 conjugation in cancer cells.
# lung A549 xenografts = assay: Subcutaneous xenografts of lung A549 cancer cell line in nude mice; type: in vivo
# Experimental: as §3
# [4] = system: colon cancer PDX (L1206F); assay: Patient derived xenograft of colon cancer (L1206F); type: in vivo, mice
# Description: as §2, §3
# SUMO1 [5] = molecular target: T1, SUMO1 (Homo sapiens, UniProt P63165); assay: Western and dot blot assays for SUMO1 conjugation and SUMO1 protein levels in LN229 cells; type: cell-based; parameters: analyzed by western blotting for detection of the conjugate and free form of SUMO1 protein and dot blotting for total levels of SUMO1 protein; endogenous in cells; host or cells: LN229 glioblastoma cells
# T1 sequence (P63165 1-97 limits assumed): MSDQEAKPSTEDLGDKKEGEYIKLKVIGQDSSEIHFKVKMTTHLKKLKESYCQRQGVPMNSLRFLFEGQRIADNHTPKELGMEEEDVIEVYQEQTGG
# Experimental: FIG. 2A illustrates how the glioblastoma LN229 cell line was treated with each of compounds of the National Cancer Institute (NCI) Diversity Set IV library and analyzed by western blot assays using SUMO1, SUMO2/3, UB and β-actin antibodies.
# as §5, §1
# log P = type: physicochemical
# Description: as §4
# [6] = system: NCI-60 panel cancer cell lines; assay: Cell growth analysis of NCI-60 panel cancer cell lines; type: cell-based, human; settings: FIG. 5C
# [7] = system: intracranial glioblastoma LN229 xenografts; assay: Intracranial brain xenografts of glioblastoma LN229 in NOD/SCID mice, Kaplan Meier survival; type: in vivo; settings: intracranial LN229, log rank test
# Experimental: as §3
# colon HCT116 xenografts = assay: Subcutaneous xenografts of colon HCT116 cancer cell line in nude mice; type: in vivo
# Experimental: as §3
# SUMO1 [8] = molecular target: T1, SUMO1; assay: Western and dot blot of normal lung epithelial Nuli-1 and lung cancer cells; type: cell-based; parameters: CPD24 treatment reduces SUMO1 conjugation and total levels of SUMO1 protein in the cancer but not normal cells; endogenous in cells
# [9] = Homo sapiens, LN-229, LN229 cells
smiles,measurement,setting,value
O=C(Nc1ccc(Cl)c([N+](=O)[O-])c1)Nc1nc2ccccc2s1 [Compound 1],poly-ubiquitination of SUMO1 protein,SUMO1 [1],results in the poly-ubiquitination of SUMO1 protein
same,mouse body weight,lung cancer PDX (L1102F),no effects of the treatment on mouse body weight
same,PDX growth,lung cancer PDX (L1102F),markedly inhibits the PDX growth
same,"tolerability, clinical signs",[2],"well tolerated over the treatment period with no clinical signs of lethargy, ataxia, paralysis, seizure or weight loss"
same,blood brain barrier crossing,[3]; distribution in brain tumors,can cross the blood brain barrier
same,"toxicity to normal tissues, side effects","[3]; mice, intraperitoneal administration",no toxicity to normal tissues or side effects on mice
same,pharmacokinetics and tissue distribution,"[3]; mouse cancer xenografts, intraperitoneal administration",sufficient for degrading SUMO1 protein in mouse cancer xenografts
same,IC50,LN229 cells; [9],≤ 5 µM
same,xenograft progression,lung A549 xenografts,significantly suppressed xenograft progression
same,body weight of mice,[4],had no effects on the body weight of mice
same,tumor growth (tumor sizes),[4],significantly inhibits the tumor growth of the colon cancer PDXs
same,"conjugated, free form and total levels of SUMO1 protein","SUMO1 [5]; LN229 cells, western and dot blotting","reduces the conjugated, free form and total levels of SUMO1 proteins"
same,"selectivity of inhibition of conjugation (SUMO1, SUMO2/3, UB)","SUMO1 [5]; LN229 cells, western blot, FIG. 2A",selectively inhibiting the conjugation of SUMO1 but not SUMO2/3 or UB
same,logP,log P,3.7
same,cell growth of NCI-60 panel cancer cell lines,[6],"significantly inhibits the cell growth of breast, colon, lung, kidney, ovarian, prostate, skin (melanocytic) and blood (leukemic) cancers"
same,survival of xenograft mice,[7],increases the survival of xenograft mice
same,xenograft progression,colon HCT116 xenografts,significantly suppressed xenograft progression
"N#Cc1ccc2nc(NC(=O)Nc3cccc(Cl)c3)sc2c1 [Compound 24, 1-(3-chlorophenyl)-3-(6-cyano-1,3-benzothiazol-2-yl)urea]",poly-ubiquitination of SUMO1 protein,SUMO1 [1],results in the poly-ubiquitination of SUMO1 protein
same,mouse body weight,lung cancer PDX (L1102F),no effects of the treatment on mouse body weight
same,"PDX growth inhibition, potency compared with CPD1",lung cancer PDX (L1102F); CPD24 25 and 50 mg/kg versus CPD1 100 mg/kg,more potent
same,PDX growth,lung cancer PDX (L1102F),markedly inhibits the PDX growth
same,"tolerability, clinical signs",[2],"well tolerated over the treatment period with no clinical signs of lethargy, ataxia, paralysis, seizure or weight loss"
same,IC50,LN229 cells; [9],≤ 5 µM
same,"inhibition of the cell growth, compared with the other representative compounds","LN229 cells; LN229 cells, FIG. 3A",much more potent in inhibition of the cell growth
same,xenograft progression,lung A549 xenografts,significantly suppressed xenograft progression
same,SUMO1 conjugation and total SUMO1 protein in normal versus cancer cells,SUMO1 [8],reduces SUMO1 conjugation and total levels of SUMO1 protein only in cancer cells
same,body weight of mice,[4],had no effects on the body weight of mice
same,tumor growth (tumor sizes),[4],significantly inhibits the tumor growth of the colon cancer PDXs
same,xenograft progression,colon HCT116 xenografts,significantly suppressed xenograft progression
N#Cc1ccc(NC(=O)Nc2nc3ccc(Cl)cc3s2)cc1 [Compound 94],IC50,LN229 cells; [9],≤ 5 µM
N#Cc1cccc(NC(=O)Nc2nc3ccc(Cl)cc3s2)c1F [Compound 95],IC50,LN229 cells; [9],> 20 µM
N#Cc1ccc(F)c(NC(=O)Nc2nc3ccc(Cl)cc3s2)c1 [Compound 96],IC50,LN229 cells; [9],≤ 5 µM
N#CC1CCc2nc(NC(=O)Nc3cccc(Cl)c3)sc2C1 (stereo not drawn) [Compound 97],IC50,LN229 cells; [9],≤ 20 µM
N#Cc1ccc2nc(NC(=O)Nc3cccc(Oc4ccccc4)c3)sc2c1 [Compound 98],IC50,LN229 cells; [9],≤ 5 µM
N#Cc1ccc2nc(NC(=O)Nc3ccnc(Cl)c3)sc2c1 [Compound 99],IC50,LN229 cells; [9],≤ 5 µM
N#Cc1cccc(NC(=O)Nc2nc3ccc(C(F)(F)F)cc3s2)c1 [Compound 100],IC50,LN229 cells; [9],≤ 5 µM
N#Cc1cccc(NC(=O)Nc2nc3c(Cl)cc(Cl)cc3s2)c1 [Compound 101],IC50,LN229 cells; [9],≤ 5 µM
N#Cc1cccc(NC(=O)Nc2nc3c(F)cc(F)cc3s2)c1 [Compound 102],IC50,LN229 cells; [9],≤ 5 µM
N#Cc1cccc(NC(=O)Nc2nc3ccc(OC(F)(F)F)cc3s2)c1 [Compound 103],IC50,LN229 cells; [9],≤ 5 µM
N#Cc1ccc(NC(=O)Nc2nc3ccc(Cl)cc3s2)c(Cl)c1 [Compound 104],IC50,LN229 cells; [9],≤ 5 µM
N#Cc1cc(F)cc(NC(=O)Nc2nc3ccc(Cl)cc3s2)c1 [Compound 105],IC50,LN229 cells; [9],≤ 5 µM
N#Cc1cc(Br)cc(NC(=O)Nc2nc3ccc(Cl)cc3s2)c1 [Compound 106],IC50,LN229 cells; [9],≤ 20 µM
N#Cc1ccc(NC(=O)Nc2nc3ccc(Cl)cc3s2)cc1F [Compound 107],IC50,LN229 cells; [9],≤ 5 µM
N#Cc1ccc2nc(NC(=O)Nc3ccc4[nH]c(=O)[nH]c4c3)sc2c1 [Compound 108],IC50,LN229 cells; [9],> 20 µM
N#Cc1ccc2nc(NC(=O)Nc3cccc4ccccc34)sc2c1 [Compound 109],IC50,LN229 cells; [9],> 20 µM
N#Cc1ccc2nc(NC(=O)Nc3ccc4ccccc4c3)sc2c1 [Compound 110],IC50,LN229 cells; [9],≤ 20 µM
Cn1ncc2ccc(NC(=O)Nc3nc4ccc(C#N)cc4s3)cc21 [Compound 111],IC50,LN229 cells; [9],> 20 µM
N#Cc1ccc2nc(NC(=O)Nc3cccc(C(=O)OCCOCCN)c3)sc2c1 [Compound 112],IC50,LN229 cells; [9],> 20 µM
"N#Cc1cc(F)cc(NC(=O)Nc2nc3ccc(C(F)(F)F)cc3s2)c1 [Compound 113, 1-(3-cyano-5-fluorophenyl)-3-[6-(trifluoromethyl)-1,3-benzothiazol-2-yl]urea]",IC50,LN229 cells; [9],≤ 5 µM
CS(=O)(=O)c1ccc2nc(NC(=O)Nc3cccc(C#N)c3)sc2c1 [Compound 114],IC50,LN229 cells; [9],≤ 20 µM
N#Cc1cc(Cl)cc(NC(=O)Nc2nc3ccc(C(F)(F)F)cc3s2)c1 [Compound 115],IC50,LN229 cells; [9],≤ 5 µM
N#Cc1ccc(NC(=O)Nc2nc3ccc(C(F)(F)F)cc3s2)c(Cl)c1 [Compound 116],IC50,LN229 cells; [9],≤ 5 µM
N#Cc1ccc(NC(=O)Nc2nc3ccc(C(F)(F)F)cc3s2)cc1 [Compound 117],IC50,LN229 cells; [9],≤ 5 µM
N#Cc1ccc(NC(=O)Nc2nc3ccc(Cl)cc3s2)cc1Cl [Compound 118],IC50,LN229 cells; [9],≤ 5 µM
N#Cc1ccc(NC(=O)Nc2nc3ccc(Cl)cc3s2)cc1C(F)(F)F [Compound 119],IC50,LN229 cells; [9],≤ 5 µM
CC(C)(C)OC(=O)NCCOCCOc1cccc(NC(=O)Nc2nc3ccc(C#N)cc3s2)c1 [Compound 120],IC50,LN229 cells; LN229 cells,≤ 5 µM
N#Cc1ccc2nc(NC(=O)Nc3cccc(OCCOCCN)c3)sc2c1 [Compound 121],IC50,LN229 cells; LN229 cells,> 20 µM
N#Cc1c(F)ccc(NC(=O)Nc2nc3ccc(Cl)cc3s2)c1F [Compound 122],IC50,LN229 cells; [9],≤ 5 µM
N#Cc1ccc(NC(=O)Nc2nc3ccc(Cl)cc3s2)c(F)c1 [Compound 123],IC50,LN229 cells; [9],≤ 20 µM
"CC(C)C[C@@H](C=O)NC(=O)[C@H](CC(C)C)NC(=O)[C@H](CC(C)C)NC(=O)OCc1ccccc1 [MG132, reference compound] (Cbz-Leu-Leu-Leu-aldehyde)",effect of MG132 on CPD1-induced degradation of SUMO1 protein,"SUMO1 [5]; LN229 cells treated with CPD1, followed by MG132",prevents CPD1-induced degradation of SUMO1 protein
